Experimental data from patent publication US20250034173A1, “PYRIDO[4,3-D]PYRIMIDINE COMPOUNDS” (PFIZER INC., priority 2023, published 2025).

Experiments:
KRAS Wild Type = KRAS Wild Type (Homo sapiens (Human), UniProt P01116); experiment: SPR binding affinity and kinetics, GTPγS-loaded KRAS Wild Type; conditions: GTPγS loaded protein, geomean
Method in brief: (§1)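 No additional regeneration is used in these SPR runs, and compound off-rate monitoring lasts at least 3600 seconds.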

KRAS G12D = KRAS G12D (Homo sapiens (Human), UniProt P01116, G12D); experiment: SPR binding affinity and kinetics, GTPγS-loaded KRAS G12D; conditions: GTPγS loaded protein, geomean
Sequence of KRAS G12D (P01116 other isoform, or with tags, fused parts or gaps G12D): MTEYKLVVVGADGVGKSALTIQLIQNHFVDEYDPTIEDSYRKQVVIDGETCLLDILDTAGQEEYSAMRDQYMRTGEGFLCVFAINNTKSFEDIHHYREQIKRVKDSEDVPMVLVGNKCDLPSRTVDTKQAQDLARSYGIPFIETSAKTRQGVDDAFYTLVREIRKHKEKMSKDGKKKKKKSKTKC
Method in brief: as §1

KRAS G12C = KRAS G12C (Homo sapiens (Human), UniProt P01116, G12C); experiment: SPR binding affinity and kinetics, GTPγS-loaded KRAS G12C; conditions: GTPγS loaded protein, geomean
Sequence of KRAS G12C (P01116 other isoform, or with tags, fused parts or gaps G12C): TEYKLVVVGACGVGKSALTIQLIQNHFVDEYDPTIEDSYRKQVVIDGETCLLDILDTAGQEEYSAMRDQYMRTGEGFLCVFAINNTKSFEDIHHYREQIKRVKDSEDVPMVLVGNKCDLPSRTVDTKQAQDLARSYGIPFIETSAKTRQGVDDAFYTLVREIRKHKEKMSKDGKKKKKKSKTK
Method in brief: as §1

KRAS G12V = KRAS G12V (Homo sapiens (Human), UniProt P01116, G12V); experiment: SPR binding affinity and kinetics, GTPγS-loaded KRAS G12V; conditions: GTPγS loaded protein, geomean
Sequence of KRAS G12V (P01116 other isoform, or with tags, fused parts or gaps G12V): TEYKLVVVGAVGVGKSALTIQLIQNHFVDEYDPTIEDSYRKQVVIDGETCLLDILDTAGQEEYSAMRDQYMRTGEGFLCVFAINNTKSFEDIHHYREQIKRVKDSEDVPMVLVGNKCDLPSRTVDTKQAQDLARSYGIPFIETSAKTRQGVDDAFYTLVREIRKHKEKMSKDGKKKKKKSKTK
Method in brief: as §1

HRAS Wild Type = HRAS Wild Type (Homo sapiens (Human), UniProt P01112); experiment: SPR binding affinity and kinetics, GTPγS-loaded HRAS Wild Type; conditions: GTPγS loaded protein, geomean
Sequence of HRAS Wild Type (P01112 2-184): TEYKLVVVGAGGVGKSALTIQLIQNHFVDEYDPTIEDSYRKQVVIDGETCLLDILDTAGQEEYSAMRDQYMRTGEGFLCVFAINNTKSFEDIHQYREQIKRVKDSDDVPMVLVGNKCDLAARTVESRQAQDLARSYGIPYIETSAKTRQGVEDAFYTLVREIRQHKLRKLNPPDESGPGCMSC
Excerpt: (§2) No additional regeneration was used.
(§3) Compound dissociation was monitored for at least 3600 seconds. […] No additional regeneration was used.
(§4) The adequateness of the fit was judged by c2 values and the randomness of residue distribution.

NRAS Wild Type = NRAS Wild Type (Homo sapiens (Human), UniProt P01111); experiment: SPR binding affinity and kinetics, GTPγS-loaded NRAS Wild Type; conditions: GTPγS loaded protein, geomean
Sequence of NRAS Wild Type (P01111 2-185): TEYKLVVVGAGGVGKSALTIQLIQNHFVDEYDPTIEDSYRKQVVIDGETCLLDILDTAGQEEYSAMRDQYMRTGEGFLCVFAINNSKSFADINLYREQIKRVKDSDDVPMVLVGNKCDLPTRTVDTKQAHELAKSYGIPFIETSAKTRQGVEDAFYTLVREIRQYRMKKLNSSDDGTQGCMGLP
Excerpt: as §2, §3, §4

[1] = test system: H358 (non-small cell lung cancer cell line); experiment: KRAS Cell Titer Glo (CTG) cell proliferation assay, H358; format: cell-based; conditions: Homo sapiens, NCI-H358, 168 h; H358 cells, 7-day CTG, geomean IC50
Method in brief: (§5)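 Compounds pre-dispensed in 0.1% DMSO before seeding H358 (300 cells/well), SW620 (750) or PANC08.13 (600); 7-day exposure at 37 °C, 5% CO2. Viability by CellTiter-Glo luminescence after 15 min at room temperature. Percent effect normalised to DMSO (0%) and 1 uM trametinib (100%); geomean IC50.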

[2] = test system: SW620 (colorectal cancer cell line); experiment: KRAS Cell Titer Glo (CTG) cell proliferation assay, SW620; format: cell-based; conditions: Homo sapiens, SW-620, 168 h; SW620 cells, 7-day CTG, geomean IC50
Method in brief: as §5

[3] = test system: PANC08.13 (pancreatic cancer cell line); experiment: KRAS Cell Titer Glo (CTG) cell proliferation assay, PANC08.13; format: cell-based; conditions: Homo sapiens, PANC-08-13, 168 h; PANC08.13 cells, 7-day CTG, geomean IC50
Method in brief: as §5

Sequence of KRAS Wild Type (P01116 other isoform, or with tags, fused parts or gaps): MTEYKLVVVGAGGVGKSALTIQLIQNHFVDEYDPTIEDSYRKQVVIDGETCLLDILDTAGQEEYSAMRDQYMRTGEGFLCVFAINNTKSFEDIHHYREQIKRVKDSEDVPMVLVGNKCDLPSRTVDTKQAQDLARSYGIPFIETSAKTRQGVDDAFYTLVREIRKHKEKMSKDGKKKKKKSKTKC

| Structure (SMILES) | Kd (KRAS Wild Type) [nM] | Kd (KRAS G12D) [nM] | Kd (KRAS G12C) [nM] | Kd (KRAS G12V) [nM] | Kd (HRAS Wild Type) [nM] | Kd (NRAS Wild Type) [nM] | IC50 [1] [nM] | IC50 [2] [nM] | IC50 [3] [nM] |
| --- | --- | --- | --- | --- | --- | --- | --- | --- | --- |
| C=C1CN2CCC[C@@]2(COc2nc3c4c(nc(-c5c(C(C)C)c(Cl)cc6[nH]ncc56)c(F)c4n2)OC[C@@H]2COCCCN32)C1 [Example 24, (8aS)-5-[6-chloro-5-(propan-2-yl)-1H-indazol-4-yl]-4-fluoro-2-{[(7aS)-2-methylidenetetrahydro-1H-pyrrolizin-7a(5H)-yl]methoxy}-8a,9,12,13-tetrahydro-8H,11H-7,10-dioxa-1,3,6,13a-tetraazanaphtho[1,8-ab]heptalene] | 7 | 5 | 4 | 5 | > 10000 | > 10000 | 45 | 18 | 6 |
| C[C@@H]1CCCc2cc3[nH]ncc3c(-c3nc4c5c(nc(OC[C@@]67CCCN6C[C@H](F)C7)nc5c3F)N3CCCOC[C@H]3CO4)c21 [Example 36, (8aS)-4-fluoro-2-{[(2R,7aS)-2-fluorotetrahydro-1H-pyrrolizin-7a(5H)-yl]methoxy}-5-[(5R)-5-methyl-5,6,7,8-tetrahydro-1H-benzo[f]indazol-4-yl]-8a,9,12,13-tetrahydro-8H,11H-7,10-dioxa-1,3,6,13a-tetraazanaphtho[1,8-ab]heptalene] | 7 | 3 | 5 | 9 | > 10000 | > 10000 | 15 | 31 | 4 |
| COC/C=C1\CN2CCC[C@@]2(COc2nc3c4c(nc(-c5c6c(cc7[nH]ncc57)CCC[C@H]6C)c(F)c4n2)OC[C@@H]2COCCCN32)C1 [Example 37, (8aS)-4-fluoro-2-{[(2Z,7aS)-2-(2-methoxyethylidene)tetrahydro-1H-pyrrolizin-7a(5H)-yl]methoxy}-5-[(5R)-5-methyl-5,6,7,8-tetrahydro-1H-benzo[f]indazol-4-yl]-8a,9,12,13-tetrahydro-8H,11H-7,10-dioxa-1,3,6,13a-tetraazanaphtho[1,8-ab]heptalene] | 3 | 2 | 3 | 4 | > 10000 | > 10000 | 9 | 25 | 4 |
| Fc1c(-c2c(C3CC3)c(Cl)cc3[nH]ncc23)nc2c3c(nc(OC[C@@]45CCCN4CC(=C4COC4)C5)nc13)N1CCCOC[C@H]1CO2 [Example 41, (8aS)-5-(6-chloro-5-cyclopropyl-1H-indazol-4-yl)-4-fluoro-2-{[(7aS)-2-(oxetan-3-ylidene)tetrahydro-1H-pyrrolizin-7a(5H)-yl]methoxy}-8a,9,12,13-tetrahydro-8H,11H-7,10-dioxa-1,3,6,13a-tetraazanaphtho[1,8-ab]heptalene] | 5 | 2 | 4 | 4 | > 10000 | > 10000 | 25 | 36 | 5 |
| C=C1CN2CCC[C@@]2(COc2nc3c4c(nc(-c5c(C6CC6)c(Cl)cc6[nH]nc(Cl)c56)c(F)c4n2)OC[C@@H]2COCCCN32)C1 [Example 46, (8aS)-5-(3,6-dichloro-5-cyclopropyl-1H-indazol-4-yl)-4-fluoro-2-{[(7aS)-2-methylidenetetrahydro-1H-pyrrolizin-7a(5H)-yl]methoxy}-8a,9,12,13-tetrahydro-8H,11H-7,10-dioxa-1,3,6,13a-tetraazanaphtho[1,8-ab]heptalene] | 4 | 3 | 3 | 4 | > 10000 | > 10000 | 15 | 45 | 5 |
| C[C@@H]1CCCc2cc3[nH]ncc3c(-c3nc4c5c(nc(OC[C@@]67CCCN6CC(=C6COC6)C7)nc5c3F)N3CCCOC[C@H]3CO4)c21 [Example 47, (8aS)-4-fluoro-5-[(5R)-5-methyl-5,6,7,8-tetrahydro-1H-benzo[f]indazol-4-yl]-2-{[(7aS)-2-(oxetan-3-ylidene)tetrahydro-1H-pyrrolizin-7a(5H)-yl]methoxy}-8a,9,12,13-tetrahydro-8H,11H-7,10-dioxa-1,3,6,13a-tetraazanaphtho[1,8-ab]heptalene] | 3 | 2 | 4 | 4 | > 10000 | > 10000 | 14 | 11 | 10 |

More lines, now with the values ahead:

| Kd (KRAS Wild Type) [nM] | Kd (KRAS G12D) [nM] | Kd (KRAS G12C) [nM] | Kd (KRAS G12V) [nM] | Kd (HRAS Wild Type) [nM] | Kd (NRAS Wild Type) [nM] | IC50 [1] [nM] | IC50 [2] [nM] | IC50 [3] [nM] | Structure (SMILES) |
| --- | --- | --- | --- | --- | --- | --- | --- | --- | --- |
| 3 | 3 | 3 | 2 | > 10000 | > 10000 | 102 | 156 | 3 | C=C1CN2CCC[C@@]2(COc2nc3c4c(nc(-c5c(C6CC6)c(Cl)cc6[nH]ncc56)c(F)c4n2)OC[C@@H]2CC[C@H](O)CN32)C1 [Example 23, (8aS,11S)-5-(6-chloro-5-cyclopropyl-1H-indazol-4-yl)-4-fluoro-2-{[(7aS)-2-methylidenetetrahydro-1H-pyrrolizin-7a(5H)-yl]methoxy}-8,8a,9,10,11,12-hexahydro-7-oxa-1,3,6,12a-tetraazabenzo[4,5]cyclohepta[1,2,3-de]naphthalen-11-ol] |
| 2 | 1 | 1 | 1 | > 10000 | > 10000 | 17 | 16 | 2 | C/C=C1\CN2CCC[C@@]2(COc2nc3c4c(nc(-c5c(C6CC6)c(Cl)cc6[nH]ncc56)c(F)c4n2)OC[C@@H]2COCCCN32)C1 [Example 26, (8aS)-5-(6-chloro-5-cyclopropyl-1H-indazol-4-yl)-2-{[(2Z,7aS)-2-ethylidenetetrahydro-1H-pyrrolizin-7a(5H)-yl]methoxy}-4-fluoro-8a,9,12,13-tetrahydro-8H,11H-7,10-dioxa-1,3,6,13a-tetraazanaphtho[1,8-ab]heptalene] |
| 3 | 1 | 2 | 2 | > 10000 | > 10000 | 19 | 26 | 4 | COC/C=C1\CN2CCC[C@@]2(COc2nc3c4c(nc(-c5c(C6CC6)c(Cl)cc6[nH]ncc56)c(F)c4n2)OC[C@@H]2COCCCN32)C1 [Example 28, (8aS)-5-(6-chloro-5-cyclopropyl-1H-indazol-4-yl)-4-fluoro-2-{[(2Z,7aS)-2-(2-methoxyethylidene)tetrahydro-1H-pyrrolizin-7a(5H)-yl]methoxy}-8a,9,12,13-tetrahydro-8H,11H-7,10-dioxa-1,3,6,13a-tetraazanaphtho[1,8-ab]heptalene] |
| 1 | 1 | 1 | 2 | > 10000 | > 10000 | 4 | 8 | < 1 | C=C1CN2CCC[C@@]2(COc2nc3c4c(nc(-c5c6c(cc7[nH]ncc57)CCC[C@H]6C)c(F)c4n2)OC[C@@H]2COCCCN32)C1 [Example 29, (8aS)-4-fluoro-2-{[(7aS)-2-methylidenetetrahydro-1H-pyrrolizin-7a(5H)-yl]methoxy}-5-[(5R)-5-methyl-5,6,7,8-tetrahydro-1H-benzo[f]indazol-4-yl]-8a,9,12,13-tetrahydro-8H,11H-7,10-dioxa-1,3,6,13a-tetraazanaphtho[1,8-ab]heptalene] |
| 2 | 1 | 2 | 2 | > 10000 | > 10000 | 10 | 7 | < 1 | C=C1CN2CCC[C@@]2(COc2nc3c4c(nc(-c5c(C6(C)CC6)c(Cl)cc6[nH]ncc56)c(F)c4n2)OC[C@@H]2COCCCN32)C1 [Example 39, (8aS)-5-[6-chloro-5-(1-methylcyclopropyl)-1H-indazol-4-yl]-4-fluoro-2-{[(7aS)-2-methylidenetetrahydro-1H-pyrrolizin-7a(5H)-yl]methoxy}-8a,9,12,13-tetrahydro-8H,11H-7,10-dioxa-1,3,6,13a-tetraazanaphtho[1,8-ab]heptalene] |
| 1 | 1 | 1 | 2 | > 10000 | > 10000 | 8 | 4 | 5 | C/C=C1\CN2CCC[C@@]2(COc2nc3c4c(nc(-c5c6c(cc7[nH]ncc57)CCC[C@H]6C)c(F)c4n2)OC[C@@H]2COCCCN32)C1 [Example 53, (8aS)-2-{[(2Z,7aS)-2-ethylidenetetrahydro-1H-pyrrolizin-7a(5H)-yl]methoxy}-4-fluoro-5-[(5R)-5-methyl-5,6,7,8-tetrahydro-1H-benzo[f]indazol-4-yl]-8a,9,12,13-tetrahydro-8H,11H-7,10-dioxa-1,3,6,13a-tetraazanaphtho[1,8-ab]heptalene] |
